Measurements: patent US20240391931A1 (Bristol-Myers Squibb Company, priority 2021, published 2024)

Tests used:
[1] = biological target: EGFR (Homo sapiens, UniProt P00533); experiment: EGFR signaling (pEGFR Tyr1068/total EGFR MSD) in A431 cells; format: cell-based; set-up: endogenous in cells; host or cells: A431, N87; details: for EC50: A431 cells, read-out: A431 pEGFR EC50; for Selectivity A431 EC50/BT474 EC50: ratio A431 pEGFR EC50 to BT474 pHER2 EC50; for Selectivity A431 EC50/HEKYVMA EC50: ratio A431 pEGFR EC50 to HEK YVMA pHER2 EC50
Outline: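 EC50 was fitted with variable Hill slope from MSD pTyr1068/total EGFR ratios, expressed as % DMSO control. A431 cells were starved overnight, then exposed 1.5 h to eight concentrations from 10 to 0.005 μM in 1% FBS before a 10-min 100 ng/mL EGF pulse.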

[2] = biological target: HER2YVMA (Homo sapiens, UniProt P04626, INS775YVMA); experiment: HER2 signaling (pHER2) in Hek293-HER2YVMA cells; format: cell-based; set-up: expressed in transfected cells; host or cells: HEK293 (pool), Ba/F3 (clones), BEAS2B (clones); lentiviral vector pCDH-CMV-MCS-EF1-Neo; details: 1.5 hr compound, 1% FBS, read-out: HEKYVMA pHER2 EC50
Outline: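 Lentivirally transduced HER2YVMA lines (HEK293 pool; BEAS2B clone) treated 1.5 h at 37 °C in 1% FBS medium with compound at 0.0005–1.1 μM. Lysates read by MSD immunoassay for pHER2 (Tyr1248) normalized to total HER2, as % DMSO control; EC50 from variable-slope sigmoidal fit.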

Sequence of EGFR (P00533 25-1210): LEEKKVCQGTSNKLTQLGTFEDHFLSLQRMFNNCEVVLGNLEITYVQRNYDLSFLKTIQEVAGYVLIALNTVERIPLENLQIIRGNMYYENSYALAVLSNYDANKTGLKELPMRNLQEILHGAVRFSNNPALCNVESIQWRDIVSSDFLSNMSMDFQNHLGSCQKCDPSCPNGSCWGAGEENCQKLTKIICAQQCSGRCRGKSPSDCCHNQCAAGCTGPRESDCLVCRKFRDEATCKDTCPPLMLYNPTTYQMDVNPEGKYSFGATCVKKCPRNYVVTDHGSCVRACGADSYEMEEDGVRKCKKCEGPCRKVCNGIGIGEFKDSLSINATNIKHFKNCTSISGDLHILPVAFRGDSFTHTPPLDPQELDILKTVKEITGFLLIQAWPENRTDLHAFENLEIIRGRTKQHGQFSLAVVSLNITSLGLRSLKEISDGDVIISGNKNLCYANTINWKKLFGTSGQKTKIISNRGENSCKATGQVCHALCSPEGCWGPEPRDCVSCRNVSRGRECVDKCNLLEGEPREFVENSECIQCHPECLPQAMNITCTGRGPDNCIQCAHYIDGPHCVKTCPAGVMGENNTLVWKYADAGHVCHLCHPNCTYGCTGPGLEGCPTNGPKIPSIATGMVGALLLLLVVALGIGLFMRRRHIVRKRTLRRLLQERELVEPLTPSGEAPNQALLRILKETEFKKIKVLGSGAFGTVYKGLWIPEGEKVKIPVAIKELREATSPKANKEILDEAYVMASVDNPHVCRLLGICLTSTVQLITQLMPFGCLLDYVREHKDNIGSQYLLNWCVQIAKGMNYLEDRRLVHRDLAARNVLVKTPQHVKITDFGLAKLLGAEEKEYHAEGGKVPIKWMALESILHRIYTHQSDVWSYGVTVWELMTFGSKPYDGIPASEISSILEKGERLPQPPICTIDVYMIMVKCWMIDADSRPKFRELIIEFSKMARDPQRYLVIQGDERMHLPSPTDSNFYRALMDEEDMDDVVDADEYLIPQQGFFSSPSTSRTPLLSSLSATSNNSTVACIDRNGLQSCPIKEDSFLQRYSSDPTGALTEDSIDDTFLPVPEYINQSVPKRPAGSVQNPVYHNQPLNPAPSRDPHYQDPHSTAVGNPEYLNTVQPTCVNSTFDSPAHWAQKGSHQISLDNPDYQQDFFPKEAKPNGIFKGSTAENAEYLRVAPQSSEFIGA
Sequence of HER2YVMA (P04626 with tags, fused parts or gaps INS775YVMA): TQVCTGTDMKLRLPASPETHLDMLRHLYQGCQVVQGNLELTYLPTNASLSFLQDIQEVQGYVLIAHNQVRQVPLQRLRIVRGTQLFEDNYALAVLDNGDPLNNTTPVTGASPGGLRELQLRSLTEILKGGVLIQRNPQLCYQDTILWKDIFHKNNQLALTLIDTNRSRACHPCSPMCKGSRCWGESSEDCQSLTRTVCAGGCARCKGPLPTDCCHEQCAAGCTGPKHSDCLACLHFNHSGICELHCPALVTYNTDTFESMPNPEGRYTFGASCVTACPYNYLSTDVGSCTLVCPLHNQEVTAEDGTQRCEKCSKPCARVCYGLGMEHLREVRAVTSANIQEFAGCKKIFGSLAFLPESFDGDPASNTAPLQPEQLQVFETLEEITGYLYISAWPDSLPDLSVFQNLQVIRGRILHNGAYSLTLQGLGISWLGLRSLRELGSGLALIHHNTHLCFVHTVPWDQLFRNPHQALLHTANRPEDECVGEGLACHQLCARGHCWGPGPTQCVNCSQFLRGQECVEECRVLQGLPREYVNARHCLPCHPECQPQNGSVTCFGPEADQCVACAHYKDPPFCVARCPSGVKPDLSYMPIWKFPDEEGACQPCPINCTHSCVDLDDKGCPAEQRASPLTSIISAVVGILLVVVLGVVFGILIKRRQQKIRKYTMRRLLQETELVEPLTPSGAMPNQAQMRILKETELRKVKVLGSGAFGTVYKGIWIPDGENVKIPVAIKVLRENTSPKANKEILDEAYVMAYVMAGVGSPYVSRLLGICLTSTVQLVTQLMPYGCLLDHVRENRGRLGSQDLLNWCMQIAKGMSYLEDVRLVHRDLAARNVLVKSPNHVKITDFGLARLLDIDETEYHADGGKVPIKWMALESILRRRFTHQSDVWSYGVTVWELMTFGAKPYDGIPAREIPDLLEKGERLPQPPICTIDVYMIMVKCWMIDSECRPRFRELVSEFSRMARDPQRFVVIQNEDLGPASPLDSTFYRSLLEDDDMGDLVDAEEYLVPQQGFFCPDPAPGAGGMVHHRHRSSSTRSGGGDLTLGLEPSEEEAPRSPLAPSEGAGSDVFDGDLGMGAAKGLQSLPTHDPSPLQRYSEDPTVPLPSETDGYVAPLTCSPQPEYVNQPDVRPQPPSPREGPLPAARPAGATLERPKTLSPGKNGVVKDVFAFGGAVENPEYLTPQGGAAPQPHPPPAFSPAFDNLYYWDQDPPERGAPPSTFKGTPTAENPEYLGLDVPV

Row | SMILES | EC50 [1] [nM] | Selectivity A431 EC50/BT474 EC50 [1] | Selectivity A431 EC50/HEKYVMA EC50 [1] | EC50 [2] [nM]
1 | Cc1ccc(Oc2ccc(Nc3ncnc4sc5c(c34)CCN(C(=O)/C=C/CN3CC(O)C3)C5)cc2C)cn1 [Compound 53] | 1000 to 10000 | C (C: ≥ 10 and < 20) | D (D: ≥ 5 and < 10) | 100 to 350
2 | Cc1ccc(Oc2ccc(Nc3ncnc4sc5c(c34)CCN(C(=O)/C=C/CNC3CCC3)C5)cc2C)cn1 [Compound 54] | 100 to 1000 | D (D: ≥ 5 and < 10) | D (D: ≥ 5 and < 10) | < 100
3 | Cc1ccc(Oc2ccc(Nc3ncnc4sc5c(c34)CCN(C(=O)/C=C/CN3CC=CCC3)C5)cc2C)cn1 [Compound 55] | 100 to 1000 | B (B: ≥ 20 and < 100) | B (B: ≥ 20 and < 100) | < 100
4 | CON(C)C/C=C/C(=O)N1CCc2c(sc3ncnc(Nc4ccc(Oc5ccc(C)nc5)c(C)c4)c23)C1 [Compound 56] | 1000 to 10000 | C (C: ≥ 10 and < 20) | B (B: ≥ 20 and < 100) | 350 to 1000
5 | Cc1ccc(Oc2ccc(Nc3ncnc4sc5c(c34)CCN(C(=O)/C=C/CN3CC4(C3)CS(=O)(=O)C4)C5)cc2C)cn1 [Compound 57] | < 100 | D (D: ≥ 5 and < 10) | D (D: ≥ 5 and < 10) | < 100
6 | Cc1ccc(Oc2ccc(Nc3ncnc4sc5c(c34)CCN(C(=O)/C=C/CN3CCN4C(=O)CCC4C3)C5)cc2C)cn1 (stereo not drawn) [Compound 58] | 1000 to 10000 | C (C: ≥ 10 and < 20) | D (D: ≥ 5 and < 10) | 350 to 1000
7 | COCCN1CCN(C/C=C/C(=O)N2CCc3c(sc4ncnc(Nc5ccc(Oc6ccc(C)nc6)c(C)c5)c34)C2)CC1 [Compound 59] | 100 to 1000 | B (B: ≥ 20 and < 100) | C (C: ≥ 10 and < 20) | < 100
8 | Cc1ccc(Oc2ccc(Nc3ncnc4sc5c(c34)CCN(C(=O)/C=C/CN3CCn4cc(C(F)(F)F)nc4C3)C5)cc2C)cn1 [Compound 61] | > 10000 | B (B: ≥ 20 and < 100) | C (C: ≥ 10 and < 20) | 350 to 1000
9 | Cc1ccc(Oc2ccc(Nc3ncnc4sc5c(c34)CCN(C(=O)/C=C/CN3CCC(n4ccnc4)CC3)C5)cc2C)cn1 [Compound 62] | 100 to 1000 | B (B: ≥ 20 and < 100) | E (E: >1 and < 5) | 100 to 350
10 | Cc1cc(Nc2ncnc3sc4c(c23)CCN(C(=O)/C=C/CN(C)C)C4)ccc1Oc1cccc(B(O)O)c1 [Compound 64, (E)-(3-(4-((7-(4-(dimethylamino)but-2-enoyl)-5,6,7,8-tetrahydropyrido[4′,3′:4,5]thieno[2,3-d]pyrimidin-4-yl)amino)-2-methylphenoxy)phenyl)boronic acid] | 100 to 1000 | C (C: ≥ 10 and < 20) | E (E: >1 and < 5) | < 100
11 | Cc1ccc(Oc2ccc(Nc3ncnc4sc5c(c34)CCN(C(=O)/C=C/CNCCO)C5)cc2C)cn1 [Compound 65] | 100 to 1000 | D (D: ≥ 5 and < 10) | E (E: >1 and < 5) | < 100
12 | Cc1ccc(Oc2ccc(Nc3ncnc4sc5c(c34)CCN(C(=O)/C=C/CN3C[C@H]4CC[C@@H](C3)O4)C5)cc2C)cn1 [Compound 66] | 100 to 1000 | C (C: ≥ 10 and < 20) | C (C: ≥ 10 and < 20) | < 100
13 | Cc1ccc(Oc2ccc(Nc3ncnc4sc5c(c34)CCN(C(=O)/C=C/CN3CCC4(CCOC4)C3)C5)cc2C)cn1 (stereo not drawn) [Compound 67] | < 100 | D (D: ≥ 5 and < 10) | D (D: ≥ 5 and < 10) | < 100
14 | Cc1cc(Nc2ncnc3sc4c(c23)CCN(C(=O)/C=C/CN2CC3CC(C3)C2)C4)ccc1Oc1ccc2ncnn2c1 [Compound 82] | 100 to 1000 | C (C: ≥ 10 and < 20) | C (C: ≥ 10 and < 20) | < 100
15 | O=C(/C=C/CN1CC2CC(C2)C1)N1CCc2c(sc3ncnc(Nc4ccc(Oc5ccc6ncnn6c5)c(Cl)c4)c23)C1 [Compound 85] | 100 to 1000 | C (C: ≥ 10 and < 20) | C (C: ≥ 10 and < 20) | < 100

More lines, now with the values ahead:

Row | EC50 [1] [nM] | Selectivity A431 EC50/BT474 EC50 [1] | Selectivity A431 EC50/HEKYVMA EC50 [1] | EC50 [2] [nM] | SMILES
16 | < 100 | D (D: ≥ 5 and < 10) | E (E: >1 and < 5) | < 100 | Cc1ccc(Oc2ccc(Nc3ncnc4sc5c(c34)CCN(C(=O)/C=C/CN[C@H]3CC[C@H](OC4CC4)CC3)C5)cc2C)cn1 [Compound 68]
17 | < 100 | A (A: ≥100) | D (D: ≥ 5 and < 10) | < 100 | Cc1ccc(Oc2ccc(Nc3ncnc4sc5c(c34)CCN(C(=O)/C=C/CN[C@H]3CC[C@H](OC(F)F)CC3)C5)cc2C)cn1 [Compound 69]
18 | < 100 | D (D: ≥ 5 and < 10) | E (E: >1 and < 5) | < 100 | Cc1ccc(Oc2ccc(Nc3ncnc4sc5c(c34)CCN(C(=O)/C=C/CN[C@H]3CC[C@H](OCC(F)(F)F)CC3)C5)cc2C)cn1 [Compound 70]
19 | < 100 | A (A: ≥100) | E (E: >1 and < 5) | < 100 | Cc1ccc(Oc2ccc(Nc3ncnc4sc5c(c34)CCN(C(=O)/C=C/CNC3CCC(C(=O)N(C)C)CC3)C5)cc2C)cn1 (stereo not drawn) [Compound 71]
20 | < 100 | D (D: ≥ 5 and < 10) | E (E: >1 and < 5) | < 100 | Cc1ccc(Oc2ccc(Nc3ncnc4sc5c(c34)CCN(C(=O)/C=C/CNC34CCC(C#N)(CC3)CC4)C5)cc2C)cn1 [Compound 72]
21 | 100 to 1000 | D (D: ≥ 5 and < 10) | E (E: >1 and < 5) | < 100 | Cc1ccc(Oc2ccc(Nc3ncnc4sc5c(c34)CCN(C(=O)/C=C/CN[C@H]3CCC[C@H](O)C3)C5)cc2C)cn1 [Compound 73]
22 | 100 to 1000 | D (D: ≥ 5 and < 10) | D (D: ≥ 5 and < 10) | < 100 | Cc1ccc(Oc2ccc(Nc3ncnc4sc5c(c34)CCN(C(=O)/C=C/CN3CCC(O)C3)C5)cc2C)cn1 (stereo not drawn) [Compound 74]
23 | < 100 | D (D: ≥ 5 and < 10) | D (D: ≥ 5 and < 10) | < 100 | Cc1ccc(Oc2ccc(Nc3ncnc4sc5c(c34)CCN(C(=O)/C=C/CN[C@@H](C)CO)C5)cc2C)cn1 [Compound 75]
24 | < 100 | C (C: ≥ 10 and < 20) | C (C: ≥ 10 and < 20) | < 100 | Cc1ccc(Oc2ccc(Nc3ncnc4sc5c(c34)CCN(C(=O)/C=C/CN3CC4CC4C3)C5)cc2C)cn1 (stereo not drawn) [Compound 76]
25 | 1000 to 10000 | B (B: ≥ 20 and < 100) | D (D: ≥ 5 and < 10) | 100 to 350 | Cc1cc(Nc2ncnc3sc4c(c23)CCN(C(=O)/C=C/CN2CC3CC2CO3)C4)ccc1Oc1ccc2ncnn2c1 (stereo not drawn) [Compound 77]
26 | 100 to 1000 | B (B: ≥ 20 and < 100) | B (B: ≥ 20 and < 100) | < 100 | Cc1cc(Nc2ncnc3sc4c(c23)CCN(C(=O)/C=C/CN(C)C(C)(C)C)C4)ccc1Oc1ccc2ncnn2c1 [Compound 80]
27 | 100 to 1000 | B (B: ≥ 20 and < 100) | C (C: ≥ 10 and < 20) | < 100 | Cc1cc(Nc2ncnc3sc4c(c23)CCN(C(=O)/C=C/CN2CC3C(CO)C3C2)C4)ccc1Oc1ccc2ncnn2c1 (stereo not drawn) [Compound 81]
28 | 1000 to 10000 | A (A: ≥100) | B (B: ≥ 20 and < 100) | < 100 | Cc1cc(Nc2ncnc3sc4c(c23)CCN(C(=O)/C=C/CN2CC(C)OC(C)C2C)C4)ccc1Oc1ccc2ncnn2c1 (stereo not drawn) [Compound 83]
29 | > 10000 | A (A: ≥100) | B (B: ≥ 20 and < 100) | 100 to 350 | Cc1cc(Nc2ncnc3sc4c(c23)CCN(C(=O)/C=C/CN2CC(C)(C)OC(C)(C)C2)C4)ccc1Oc1ccc2ncnn2c1 [Compound 84]
30 | > 10000 | B (B: ≥ 20 and < 100) | A (A: ≥100) | < 100 | C=C(CN1CCc2c(sc3ncnc(Nc4ccc(Oc5ccc(C)nc5)c(C)c4)c23)C1)C(=O)OCC [Compound 86, Ethyl 2-((4-((3-methyl-4-((6-methylpyridin-3-yl)oxy)phenyl)amino)-5,8-dihydropyrido[4′,3′:4,5]thieno[2,3-d]pyrimidin-7(6H)-yl)methyl)acrylate]
